From ChEMBL document CHEMBL1144600, “Efficient synthesis and biological evaluation of omega-oxygenated analogues of vitamin K2: study of modification and structure-activity relationship of vitamin K2 metabolites” (2007)
Activity calls are given as the source filed them. The rule behind the calls is not given here.

Tested on: HL-60
Assay: Apoptosis inducing activity in human HL60 cells at 10 uM after 74 hrs
Assay type: functional

In the case of CC1=C(C/C=C(\C)CC/C=C(\C)CO)C(=O)c2ccccc2C1=O, the Activity is reported as “inactive”.
For CC1=C(C/C=C(\C)CC/C=C(\C)CC/C=C(\C)CC/C=C(\C)C=O)C(=O)c2ccccc2C1=O, the Activity was “inactive”.
For CC1=C(C/C=C(\C)CC/C=C(\C)CC/C=C(\C)C=O)C(=O)c2ccccc2C1=O, the Activity was “inactive”.
In the case of CC1=C(C/C=C(\C)CC/C=C(\C)CC/C=C(\C)CO)C(=O)c2ccccc2C1=O, the Activity is reported as 75%.
CC1=C(C/C=C(\C)CC/C=C(\C)CC/C=C(\C)CC/C=C(\C)CO)C(=O)c2ccccc2C1=O gave an Activity of 15%.
CC1=C(C/C=C(\C)CC/C=C(\C)C=O)C(=O)c2ccccc2C1=O was tested, and the Activity was “inactive”.
